Source: patent US20120190017A1, “POLYMORPHISMS IN THE HUMAN GENE FOR THE MULTIDRUG RESISTANCE-ASSOCIATED PROTEIN 1 (MRP-1) AND THEIR USE IN DIAGNOSTIC AND THERAPEUTIC APPLICATIONS” (priority 2001, published 2012)

Tested on: MRP-1 mRNA
Test: MRP-1 mRNA content in duodenal biopsies from healthy volunteers before and after application of rifampicin
Format: in vivo, human
Conditions: before (A) vs after (B) application of rifampicin, paired T-test p<0.001
From the text: FIG. 3: Diagram 1A and 1B represent the correlation of the genotype (wt/wt: 1; wt/mut and mut/mut:2) with MRP-1 mRNA content in duodenal biopsies from healthy volunteers derived from two independent experiments, before (A) and after (B) application of rifampicin. The p-value of the statistical evaluation (Kruskal-Wallis-Test), which result in a genotyp/phenotype correlation is p=0.086. […] Thus, the differences in the MRP-1 mRNA content are based on interindividual differences. The statistical analyses were performed using the computer program SPSS 10.0 (SPSS, Chicago, USA).
Functional polymorphisms in the MRP-1 gene (see tables in examples 2 and 4) affect the transport activity and subsequently the levels of drugs which are substrates of MRP-1. […] Three different patient collectives, two show side effects during drug therapy and one for which the MRP-1 mRNA levels had been defined, were analyzed to determine whether MRP-1 polymorphisms correlate with transporter activity and subsequently with alterations in drug activities and side effects. […] For this purpose, the 3 collectives (collective 1: samples with nephrotoxicities after cisplatin therapy; collective 2: liver and kidney side effects; collective 3: samples with defined high or low MRP-1 mRNA levels) were screened for all MRP-1 gene fragments, in which the new SNP's could be detected. […]

CO[C@H]1/C=C/O[C@@]2(C)Oc3c(C)c(O)c4c(O)c(c(/C=N/N5CCN(C)CC5)c(O)c4c3C2=O)NC(=O)/C(C)=C\C=C\[C@H](C)[C@H](O)[C@@H](C)[C@@H](O)[C@@H](C)[C@H](OC(C)=O)[C@@H]1C [rifampicin]
effect on MRP-1 mRNA expression: no effect
